This is an account of results in patent US12662451B2, “Chemical compounds and uses thereof” (GLAXOSMITHKLINE INTELLECTUAL PROPERTY (NO.4) LIMITED, priority 2023, dated 2026).

The target in data set [1] is T1, recombinant full-length WRN protein (1-1432) (Homo sapiens, UniProt Q14191).
T1 construct: recombinant full-length WRN protein (1-1432)
The experiment in a line: WRN unwinding activity, fluorogenic 384-well assay (Example A). It is filed as biochemical. The settings on record: WRN unwinding activity, Table 2; for IC50: 4 hr, read-out: 4 hr UNW pIC50 (converted). In short, it runs like this:
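Read-out is end-point unwinding of a fluorophore/quencher duplex (ex 525, em 598 nm) after 60 min with 200 μM ATP and 12 nM DNA (2× stocks), EDTA stop. Compound first sat 4 h with 200 pM WRN (2× stock) in pH 8.0 Tris buffer; four-parameter fit gives pIC50.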

Data set [2] concerns SW48 human colorectal cancer cells (MSI-H cancer cells).
Data set [3] can be described thus: Cell culture media unbound percentage and stability by rapid equilibrium dialysis (Example C). It is filed as in vitro ADME. The settings on record: bovine, cell assay medium (RPMI-1640 with 10% fetal bovine serum), pH 7.4, rapid equilibrium dialysis, 4 hours at 37° C., read-out: Cell Culture Media Binding (% unbound). In short, it runs like this: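 Percent unbound in cell assay medium came from the LC-MS/MS receiver:donor peak area ratio, with stability taken as the 240 min over 0 min ratio. Set-up: 1 μM nominal compound in medium dialysed against pH 7.4 PBS (100 mM phosphate, 150 mM NaCl), 4 h, 37° C, shaken, in triplicate.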
In general terms: In equilibrium dialysis only unbound substance equilibrates across the membrane.

The subject of data set [4] is SW48 human colorectal cancer cells. The experiment in a line: Calculated free drug potency in SW48 cell assay, corrected with media free fraction (Example C). It is filed as cell-based. Particulars: Homo sapiens, SW48, SW48 pCC50 corrected with measured free fraction in cell assay media. In outline: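 Free drug potency derives from correcting SW48 assay concentrations with the unbound fraction in medium. That fraction came from RED against pH 7.4 PBS, 1 μM nominal compound, 4 h at 37 °C, quantified by LC-MS/MS peak area ratios at T=240 versus T=0 min.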

In data set [5] the test system is SW48 human colorectal cancer cell line xenografts. The data set is described as follows: In vivo efficacy in mouse model bearing SW48 xenografts (Example D). Particulars: SW48 xenograft, female nude mice. Here is the method:
In Viva Efficacy Study of Test Compounds in Mouse Model Bearing SW48 Human Colorectal Cancer Cell Line Xenografts
Experiments were performed with female Crl:Nu-Foxn1^nu nude mice. Animals were housed under optimized hygienic condition with food and water at libitum and a 12 h:12 h light:dark cycle. Animals were allowed to acclimatize for at least 4 days before being enrolled in the experimental design.
SW48 human colorectal cancer cells (RRID:CVCL1724) were obtained from ATCC. The cells were cultured in RPMI 1640 with 10% Fetal Bovine Serum at 37° C. in atmosphere of 5% CO2 in air. To establish SW48 xenografts, cells were harvested and resuspended in serum free RPM11640 and Matrigel before inoculation and 5×10^6 SW48 tumor cells were injected subcutaneously in 100 μL volume using 27G1/2 needle. Cells were inoculated in the right hind flank of the animals.
Post cell inoculation, tumor growth was monitored daily, and animals were randomized into treatment groups (n=10/group) once the tumor volume reached an appropriate size (80-150 mm^3). Throughout the treatment period, both tumor volume and body weight were measured approximately twice a week. The tumor size, in mm^3, was computed using the formula: 0.5×L×W^2, where W=width and L=length of the tumor. To prepare a test compound for oral administration, between 30-120 mg of the test compound was dissolved in a vehicle solution consisting of 0.5% Methycellulose (cp 400) and 0.5% Tween 80. The compound was freshly prepared one hour prior to daily administration. If turbidity was observed, the solution was vortexed at over 2000 rpm for 10 minutes and mixed with a 1 mL syringe. The resulting solution formulation was utilized for in vivo studies.
Animals received either a vehicle or test compounds at dosage of 30 or 100 mg/kg daily through oral gavage (10 ml/kg). Body weight was measured twice a week using the Ohaus electronic scale (STX421) and the data was automatically added to the study log. Moreover, daily clinical observations were performed to closely monitor the animals. Tumor growth inhibition was computed using the following formula:
[formula] where T=current group value; T0=Current group initial value; C=Control group Value; C0=control group initial value.
Data of tumor volume were exported and analyzed in GraphPad Prism (9.5). The analysis included a two-way ANOVA test, comparing the vehicle control vs. treatments at different time points, followed by a Tukey HSD post hoc test.
The calculation of tumor regression was conducted as per the following formula:
[formula] where Day 0=treatment start day; Δ tumor volume=mean tumor volume on the evaluation day—mean tumor volume Day 0.

Data set [6] has as its system SW48 human colorectal cancer cells (MSI-H cancer cells). The experiment in a line: SW48 cell viability, CellTiter-Glo, 120 hours (Example B). Particulars: for CC50: Homo sapiens. (In general: Cellular ATP, detected with luciferase, serves as a proxy for viable cell number.)
The mark [7] stands for this setting: SW48, read-out: SW48 pCC50, measured potency from Example B, as repeated in Table 3 (converted).
Where [8] appears, read: SW48, 120 h, read-out: SW48 pCC50, SW48 cell viability, 120 hours incubation (converted), Table 2.

Like-named read-outs stand apart in the source and are kept apart here.

T1 sequence (Q14191 whole entry): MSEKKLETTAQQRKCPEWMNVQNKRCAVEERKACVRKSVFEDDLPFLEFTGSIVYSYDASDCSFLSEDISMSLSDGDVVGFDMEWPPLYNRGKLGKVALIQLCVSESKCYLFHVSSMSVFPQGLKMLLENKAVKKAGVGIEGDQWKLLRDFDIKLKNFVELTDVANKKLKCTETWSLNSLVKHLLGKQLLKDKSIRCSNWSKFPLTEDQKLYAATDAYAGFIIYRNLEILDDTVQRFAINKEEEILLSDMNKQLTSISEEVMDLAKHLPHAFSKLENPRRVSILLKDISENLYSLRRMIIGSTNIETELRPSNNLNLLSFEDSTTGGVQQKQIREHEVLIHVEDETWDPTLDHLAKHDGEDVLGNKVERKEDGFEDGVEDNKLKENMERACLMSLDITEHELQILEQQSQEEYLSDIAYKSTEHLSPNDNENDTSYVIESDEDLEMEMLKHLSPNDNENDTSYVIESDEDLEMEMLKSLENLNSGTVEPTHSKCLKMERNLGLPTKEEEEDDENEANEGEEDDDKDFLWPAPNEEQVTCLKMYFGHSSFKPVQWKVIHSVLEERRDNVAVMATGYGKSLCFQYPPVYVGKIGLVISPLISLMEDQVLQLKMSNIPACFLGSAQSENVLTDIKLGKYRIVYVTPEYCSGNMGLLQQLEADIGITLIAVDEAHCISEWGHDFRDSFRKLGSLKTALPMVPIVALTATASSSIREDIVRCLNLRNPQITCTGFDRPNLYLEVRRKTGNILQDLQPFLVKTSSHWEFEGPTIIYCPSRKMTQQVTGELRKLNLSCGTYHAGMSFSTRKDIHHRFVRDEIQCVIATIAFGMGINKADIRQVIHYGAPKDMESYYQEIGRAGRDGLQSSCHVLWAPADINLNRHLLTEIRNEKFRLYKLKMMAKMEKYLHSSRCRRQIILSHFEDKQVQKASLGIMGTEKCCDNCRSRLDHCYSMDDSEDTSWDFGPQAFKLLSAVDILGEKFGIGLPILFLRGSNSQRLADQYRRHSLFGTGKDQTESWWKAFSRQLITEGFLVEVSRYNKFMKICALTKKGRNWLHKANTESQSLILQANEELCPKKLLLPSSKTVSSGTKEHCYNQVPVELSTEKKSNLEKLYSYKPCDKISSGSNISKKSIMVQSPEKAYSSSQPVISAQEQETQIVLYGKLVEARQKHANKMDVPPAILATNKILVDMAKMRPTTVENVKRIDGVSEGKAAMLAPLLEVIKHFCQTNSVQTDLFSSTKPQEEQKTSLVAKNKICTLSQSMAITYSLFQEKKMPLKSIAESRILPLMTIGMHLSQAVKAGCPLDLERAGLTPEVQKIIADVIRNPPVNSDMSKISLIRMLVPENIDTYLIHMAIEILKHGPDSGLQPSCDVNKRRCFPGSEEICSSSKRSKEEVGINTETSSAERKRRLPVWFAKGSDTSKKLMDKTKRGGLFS

As for `Cc1nc2cc(S(=O)(=O)Nc3ccc([C@H]4CCC[C@@H](C(=O)Nc5ccc(C(F)(F)F)cc5F)[C@@H]4C(=O)O)cc3)ccc2[nH]1` (relative stereo) [Example 259, rel-(1R,2R,6S)-2-((2-fluoro-4-(trifluoromethyl)phenyl)carbamoyl)-6-(4-((2-methyl-1H-benzo[d]imidazole)-5-sulfonamido)phenyl)cyclohexane-1-carboxylic acid], the “4 hr UNW pIC50” value in data set [1] turned out to be 9.2. The “SW48 pCC50” value in data set [2] worked out at 5.4.
For the compound `Cc1nc2cc(S(=O)(=O)N(C)c3ccc([C@H]4CCC[C@@H](C(=O)Nc5ccc(C(F)(F)F)cc5F)[C@@H]4C(=O)O)cc3)ccc2n1C` (single isomer, unassigned) [Example 83], in data set [1], the IC50 is 2.51 nM. Further, in data set [3], the fraction unbound at 4 h, 1 µM worked out at 0.065. Also, the CC50 in data set [4] is 12.9 nM; in data set [6] (setting [7]), 251 nM. Moreover, the mean tumor regression in data set [5] (100 mpk daily oral, 55th day) was −24.01%. For the same compound, the “SW48 pCC50” value in data set [6] (SW48 cell viability, 120 hours incubation, Table 2) came out at 6.6.
Consider `CCO[C@@H]1C[C@H](c2ccc(N(C)S(=O)(=O)c3ccc4c(c3)nc(C)n4C)cc2)[C@@H](C(=O)O)[C@H](C(=O)Nc2ccc(C(F)(F)F)cc2F)C1` (single isomer, unassigned) [Example 138], for which the IC50 in data set [1] is 3.16 nM. In data set [3], the fraction unbound at 4 h, 1 µM amounted to 0.067. Also, the results for the CC50 in data set [4], in data set [6] (setting [8]) and in data set [6] (setting [7]) were 17 nM, 251 nM and 251 nM, respectively. In addition, the mean tumor regression in data set [5] (30 mpk orally once a day, 21st day) is −74.26%.
For `COC[C@@H]1C[C@H](c2ccc(N(C)S(=O)(=O)c3ccc4c(c3)nc(C)n4C)cc2)[C@@H](C(=O)O)[C@H](C(=O)Nc2ccc(C(F)(F)F)cc2F)C1` (single isomer, unassigned) [Example 250], the IC50 in data set [1] was 6.31 nM. Moreover, the fraction unbound at 4 h, 1 µM in data set [3] was 0.027. Further, the CC50 in data set [4] was 8.51 nM; in data set [6] (setting [8]) it was 316 nM; in data set [6] (setting [7]), 316 nM. The “tumor growth inhibition compared to the vehicle control” value in data set [5] (30 mpk daily oral, 21st day) is listed as 72.95%.
Consider `Cc1nc2cc(S(=O)(=O)N(C)c3ccc([C@H]4CCC[C@@H](COc5ccc(C(F)(F)F)cc5)[C@@H]4C(=O)O)cc3)cc([C@@H]3CCCNC3)c2n1C.Cl` (stereo in doubt) [Example 210, rel-(1R,2R,6S)-2-((4-(trifluoromethyl)phenoxy)methyl)-6-(4-((N,1,2-trimethyl-7-((S)-piperidin-3-yl)-1H-benzo[d]imidazole)-5-sulfonamido)phenyl)cyclohexane-1-carboxylic acid, hydrochloride], for which, in data set [1], the “4 hr UNW pIC50” value was 5.7. Also, the “SW48 pCC50” value in data set [2] stood at 4.9.
Taken in the same sequence, the figures for `CN(c1ccc([C@H]2CCC[C@@H](C(=O)Nc3ccc(C(F)(F)F)cc3F)[C@@H]2C(=O)O)cc1)S(=O)(=O)c1ccc(-n2cccn2)cc1` [Example 98, (1R,2R,6S)-2-((2-fluoro-4-(trifluoromethyl)phenyl)carbamoyl)-6-(4-((N-methyl-4-(1H-pyrazol-1-yl)phenyl)sulfonamido)phenyl)cyclohexane-1-carboxylic acid] were 8.6 and 5.5.
As to `Cc1nc2cc(S(=O)(=O)N(C)c3ccc([C@H]4C[C@@H](N5CCC(F)(F)C5)C[C@@H](C(=O)Nc5ccc(C(F)(F)F)cc5F)[C@@H]4C(=O)O)cc3)ccc2n1C` [Example 306, (1R,2R,4R,6S)-4-(3,3-difluoropyrrolidin-1-yl)-2-((2-fluoro-4-(trifluoromethyl)phenyl)carbamoyl)-6-(4-((N,1,2-trimethyl-1H-benzo[d]imidazole)-5-sulfonamido)phenyl)cyclohexane-1-carboxylic acid], the IC50 in data set [1] is 5.01 nM. Further, the fraction unbound at 4 h, 1 µM in data set [3] stood at 0.103. Further, the CC50 in data set [4] is 10.2 nM; in data set [6] (setting [8]) it was 100 nM; in data set [6] (setting [7]) it was 100 nM. In addition, the mean tumor regression in data set [5] (30 mpk daily oral, 23rd day) is listed as −73.2%.
Turning to `Cc1nc2cc(S(=O)(=O)N(C)c3ccc([C@H]4CCC[C@@H](C(=O)Nc5ccc(C(C)C)cc5)[C@@H]4C(=O)O)cc3)ccc2n1C` [Example 396, (1R,2R,6S)-2-((4-isopropylphenyl)carbamoyl)-6-(4-((N,1,2-trimethyl-1H-benzo[d]imidazole)-5-sulfonamido)phenyl)cyclohexane-1-carboxylic acid], the IC50 in data set [1] was 1.58 nM. Also, the fraction unbound at 4 h, 1 µM in data set [3] was determined as 0.0717. For the same compound, the CC50 was 45.7 nM in data set [4], 631 nM in data set [6] (setting [8]) and 631 nM in data set [6] (setting [7]).
